This passage reports Ki results from publication PMC3898461 (Biochemistry, 2013).

The assay deals with MurQ-EC (MurNAc 6P hydrolase from Escherichia coli) (Escherichia coli, UniProt P76535). The assay can be described thus: coupled spectrophotometric assay of D-lactate release. In kind it is biochemical.
MurQ-EC (MurNAc 6P hydrolase from Escherichia coli), sequence (P76535 whole entry): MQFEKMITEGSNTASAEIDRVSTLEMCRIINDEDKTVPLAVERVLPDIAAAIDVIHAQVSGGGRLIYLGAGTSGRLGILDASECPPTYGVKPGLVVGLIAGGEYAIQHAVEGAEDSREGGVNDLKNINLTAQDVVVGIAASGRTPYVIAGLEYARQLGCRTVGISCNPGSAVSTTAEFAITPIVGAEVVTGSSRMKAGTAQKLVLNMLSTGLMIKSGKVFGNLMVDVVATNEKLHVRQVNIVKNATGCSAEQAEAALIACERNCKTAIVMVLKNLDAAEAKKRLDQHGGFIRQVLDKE

`CC(=O)N[C@@H](CO)[C@@H](O[C@H](C)C(=O)O)[C@H](O)[C@H](O)COP(=O)(O)O` [compound 2]: the affinity corresponds to a Ki of 230 ± 20 µM. As for `CC(=O)N[C@@H](CO)[C@@H](O)[C@H](O)[C@H](O)COP(=O)(O)O` [compound 1], the figure is 1100 ± 300 µM.
